The record followed here is ChEMBL document CHEMBL4602694, “Suppression of Drug-Resistant Non-Small-Cell Lung Cancer with Inhibitors Targeting Minichromosomal Maintenance Protein” (J Med Chem, 2020).

The source made the active and inactive calls. No cut-off for these calls is given here.

In general, IC50 refers to the midpoint of a concentration-inhibition curve.

Data set [1] in a line: Toxicity in athymic nude BALB/c mouse xenografted with human NCI-H1975 cells assessed as effect on serum alanine transaminase at 1 or 4 mg/kg, ip administered for 4 weeks. The format is organism-based. Particulars: in vivo, 672 h. On the technique in general: Xenograft models place foreign cells or tissue in a host animal.
The target of data set [2] is DNA replication licensing factor MCM2 (Homo sapiens) (UniProt P49736). As to the kind of experiment: Induction of ubiquitination of MCM2 in human H3255 cells incubated for 24 hrs by immunoblot analysis. The format is cell-based. The note with it: NCI-H3255. A general note: In western blotting, separated proteins are transferred to a membrane and probed.
Chain of DNA replication licensing factor MCM2 (Homo sapiens) (P49736 whole entry): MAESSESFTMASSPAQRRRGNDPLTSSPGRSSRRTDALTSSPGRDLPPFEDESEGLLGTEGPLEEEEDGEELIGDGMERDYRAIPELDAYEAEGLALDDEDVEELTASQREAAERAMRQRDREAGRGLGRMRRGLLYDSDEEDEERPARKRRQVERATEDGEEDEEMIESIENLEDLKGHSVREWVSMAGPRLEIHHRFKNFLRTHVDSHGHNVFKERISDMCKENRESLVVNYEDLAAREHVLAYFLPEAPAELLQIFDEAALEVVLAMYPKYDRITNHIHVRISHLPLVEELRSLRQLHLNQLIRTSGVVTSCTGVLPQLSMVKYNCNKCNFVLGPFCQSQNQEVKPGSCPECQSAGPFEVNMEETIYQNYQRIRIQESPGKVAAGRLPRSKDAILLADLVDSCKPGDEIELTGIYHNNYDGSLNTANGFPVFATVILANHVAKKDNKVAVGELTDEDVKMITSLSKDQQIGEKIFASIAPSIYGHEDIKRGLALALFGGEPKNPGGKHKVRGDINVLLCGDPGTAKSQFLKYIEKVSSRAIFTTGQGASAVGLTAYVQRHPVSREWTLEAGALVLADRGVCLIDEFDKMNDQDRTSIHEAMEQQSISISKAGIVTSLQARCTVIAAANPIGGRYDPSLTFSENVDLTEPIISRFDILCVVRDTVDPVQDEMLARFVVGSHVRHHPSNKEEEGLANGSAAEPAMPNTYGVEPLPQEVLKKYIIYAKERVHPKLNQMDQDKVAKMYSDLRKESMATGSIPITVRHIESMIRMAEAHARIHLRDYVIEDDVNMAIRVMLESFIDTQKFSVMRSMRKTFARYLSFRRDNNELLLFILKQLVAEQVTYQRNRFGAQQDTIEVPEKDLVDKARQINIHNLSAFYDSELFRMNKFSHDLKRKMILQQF
Data set [3] deals with T1, DNA replication licensing factor MCM6 (Homo sapiens) (UniProt Q14566).
T1 sequence (whole entry): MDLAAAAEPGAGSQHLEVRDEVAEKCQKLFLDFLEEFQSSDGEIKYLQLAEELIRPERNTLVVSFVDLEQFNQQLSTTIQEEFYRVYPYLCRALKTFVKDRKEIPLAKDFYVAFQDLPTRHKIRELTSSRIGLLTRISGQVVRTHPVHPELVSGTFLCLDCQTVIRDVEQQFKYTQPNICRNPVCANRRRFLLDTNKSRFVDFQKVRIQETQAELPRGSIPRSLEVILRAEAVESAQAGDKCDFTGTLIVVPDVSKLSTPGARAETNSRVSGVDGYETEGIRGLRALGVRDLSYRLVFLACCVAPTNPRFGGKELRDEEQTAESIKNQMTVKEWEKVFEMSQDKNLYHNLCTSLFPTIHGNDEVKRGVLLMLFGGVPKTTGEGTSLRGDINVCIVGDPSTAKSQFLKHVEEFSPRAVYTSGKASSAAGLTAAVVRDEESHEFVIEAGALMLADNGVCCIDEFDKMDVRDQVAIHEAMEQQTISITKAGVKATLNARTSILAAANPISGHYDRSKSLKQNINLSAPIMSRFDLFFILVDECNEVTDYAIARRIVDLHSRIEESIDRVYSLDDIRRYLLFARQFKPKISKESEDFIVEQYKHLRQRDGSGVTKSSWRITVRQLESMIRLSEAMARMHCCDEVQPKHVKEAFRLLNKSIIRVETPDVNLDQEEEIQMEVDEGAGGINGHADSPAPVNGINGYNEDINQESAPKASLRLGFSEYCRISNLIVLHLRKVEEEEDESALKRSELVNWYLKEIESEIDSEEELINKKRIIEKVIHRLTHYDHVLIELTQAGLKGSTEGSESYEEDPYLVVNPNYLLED
As to the kind of experiment: Induction of ubiquitination of MCM6 in human NCI-H1975 cells incubated for 24 hrs by immunoblot analysis. The format is cell-based.

The nature of data set [4]: Selectivity index, ratio of IC50 for human bronchial epithelial cells to IC50 for human CL1-0 cells. The format is toxicity. The note with it: human bronchial epithelial cells versus CL1-0 cells, read-out: Ratio IC50.
Data set [5] relates to NCI-H1975. Description: Induction of apoptosis in human NCI-H1975 cells xenografted in athymic nude BALB/c mouse at 1 or 4 mg/kg, ip administered for 4 weeks by hematoxylin and eosin staining based assay. The format is functional, organism-based.
The target of data set [6] is DNA replication licensing factor MCM2 (Homo sapiens) (UniProt P49736). Description: Induction of ubiquitination of MCM2 in human NCI-H1975 cells incubated for 24 hrs by magnetic beads technique based immunoblot analysis. The format is cell-based.
Data set [7] is described as follows: Toxicity in athymic nude BALB/c mouse xenografted with human NCI-H1975 cells assessed as effect on serum creatinine at 1 or 4 mg/kg, ip administered for 4 weeks. The format is organism-based. The note with it: in vivo, 672 h.
In data set [8] the target is DNA replication licensing factor MCM2 (Homo sapiens) (UniProt P49736). Description: Binding affinity to MCM2 in human NCI-H1975 cells assessed as reduction in MCM2 level measured up to 9 hrs by immunoblot analysis. The format is cell-based.
In data set [9] the target is T1, DNA replication licensing factor MCM6 (Homo sapiens). As to the kind of experiment: Induction of ubiquitination of MCM6 in human NCI-H1975 cells at 140 nM in presence of MG132 incubated for 48 hrs followed by MG132 addition and measured after 12 hrs by immunoblot analysis. It counts as cell-based.
Data set [10] is described as follows: Antiproliferative activity against human CL1-5 cells assessed as reduction in cell viability incubated for 72 hrs by SRB assay. The note with it: CL1-5, 72 h. The format is functional, cell-based. For orientation: The SRB assay estimates cell density from bound dye.
Data set [11] concerns NCI-H1975. As to the kind of experiment: Induction of apoptosis in human NCI-H1975 cells assessed as increase in cleaved PARP1 level at 140 nM incubated upto 72 hrs by immunoblotting analysis. It counts as functional, cell-based.
The subject of a further data set is CL1-0. As to the kind of experiment: Antiproliferative activity against human CL1-0 cells assessed as reduction in cell viability incubated for 72 hrs by SRB assay. Particulars: CL1-0, 72 h. It counts as functional, cell-based.
Data set [12] deals with NCI-H1975. Description: Antitumor activity against human NCI-H1975 cells xenografted in athymic nude BALB/c mouse assessed as tumor growth at 1 mg/kg, ip administered for 4 weeks (reference value: 1217 +/- 516.6 cu.mm). The format is functional.
Data set [13] concerns NCI-H1975. As to the kind of experiment: Cell cycle arrest in human NCI-H1975 cells assessed as BrdU positive cells at 140 nM incubated for 24 hrs by BrdUrd incorporation assay (reference value: 44.5 +/- 2 %). The format is functional.
The target in data set [14] is T1, DNA replication licensing factor MCM6 (Homo sapiens). As to the kind of experiment: Induction of ubiquitination of MCM6 in human NCI-H1975 cells incubated for 72 hrs by immunoblot analysis (reference value: 1). It counts as cell-based.
For data set [15] the target is unchanged. Description: Induction of ubiquitination of MCM6 in human NCI-H1975 cells in presence of MG132 incubated for 48 hrs followed by MG132 addition and measured after 12 hrs by immunoblot analysis (reference value: 1.8). The format is cell-based.
Data set [16] is described as follows: Selectivity index, ratio of IC50 for human bronchial epithelial cells to IC50 for human NCI-H1975 cells. The note with it: human bronchial epithelial cells versus NCI-H1975 cells, read-out: Ratio IC50. The format is toxicity.
Data set [17] relates to DNA replication licensing factor MCM2 (Homo sapiens), P49736 [Q341A]. Description: Induction of ubiquitination of FLAG-tagged MCM2 Q341A mutant (unknown origin) expressed in human 293T cells incubated for 4 hrs by magnetic beads technique based immunoblot analysis. It counts as cell-based. The note with it: HEK-293T.
Chain of DNA replication licensing factor MCM2 (Homo sapiens), P49736 [Q341A] (P49736 whole entry Q341A): as the sequence (P49736 whole entry) above, with Q341A counted along it
Data set [18] addresses DNA replication licensing factor MCM2 (Homo sapiens) (UniProt P49736). As to the kind of experiment: Induction of ubiquitination of MCM2 in human NCI-H1975 cells in presence of MLN4924 incubated for 24 hrs followed by MLN4924 addition and measured after 6 hrs by immunoblot analysis. The format is cell-based.

With `Cc1oc2c(c1C(=O)NCCCn1ccnc1)C(=O)c1ccccc1C2=O`, the Activity entry is “Non-Toxic” in [1]; “Dose-dependent effect” in data set [3]; “Non-Toxic” in [7]; 701.2 mm3 with NCI-H1975 [12]; 27.7% in the data set with NCI-H1975 [13]; 0.2 in [14]. In data set [15], the Activity was determined as 0.5. Moreover, the result (in data set [2]; in the data set with NCI-H1975 [5]; in data set [6]; in [8]; in data set [9]; in the data set with NCI-H1975 [11]) was Active. For the same molecule, in [17], the outcome was Active. The selectivity ratio in data set [4] and in data set [16] was > 10 each time. Also, the IC50 (in data set [10]; with CL1-0) was < 100 nM each time. Besides, the outcome in data set [18] was inactive.
